Results: patent US11235041B2, “Peptides and combination of peptides for use in immunotherapy against various cancers” (Immatics Biotechnologies GmbH, priority 2015, dated 2022)
Values belong to the substance of their own block, whether it stands above or below them.

How the values were obtained:
[1] = tested on: CD8+ T cells of healthy HLA-A*02+ donors; test: In vitro T-cell priming assay with artificial antigen presenting cells loaded with peptide/HLA-A*02 complexes and anti-CD28, multimer readout; type: cell-based, human; conditions: HLA-A*02 peptides; peptide-specific multimer+ CD8+ T cells after in vitro priming; Table 19B
Excerpt: FIGS. 4A to 4D show exemplary results of peptide-specific in vitro CD8+ T cell responses of a healthy HLA-A*02+ donor. CD8+ T cells were primed using artificial APCs coated with anti-CD28 mAb and HLA-A*02 in complex with SeqID No 27 peptide (FIG. 4A, left panel), SeqID No 229 peptide (FIG. 4B, left panel), SeqID No 230 peptide (FIG. 4C, left panel) and SeqID No 235 peptide (FIG. 4D, left panel), respectively. After three cycles of stimulation, the detection of peptide-reactive cells was performed by 2D multimer staining with A*02/SeqID No 27 (FIG. 4A), A*02/SeqlD No 229 (FIG. 4B), A*02/SeqlD No 230 (FIG. 4C) or A*02/SeqlD No 235 (FIG. 4D). Right panels (FIGS. 4A, 4B, 4C and 4D) show control staining of cells stimulated with irrelevant A*02/peptide complexes. Viable singlet cells were gated for CD8+ lymphocytes. Boolean gates helped excluding false-positive events detected with multimers specific for different peptides. Frequencies of specific multimer+ cells among CD8+ lymphocytes are indicated.
In order to obtain information regarding the immunogenicity of the TUMAPs of the present invention, the inventors performed investigations using an in vitro T-cell priming assay based on repeated stimulations of CD8+ T cells with artificial antigen presenting cells (aAPCs) loaded with peptide/MHC complexes and anti-CD28 antibody.
In order to perform in vitro stimulations by artificial antigen presenting cells loaded with peptide-MHC complex (pMHC) and anti-CD28 antibody, the inventors first isolated CD8+ T cells from fresh HLA-A*02 leukapheresis products via positive selection using CD8 microbeads (Miltenyi Biotec, Bergisch-Gladbach, Germany) of healthy donors obtained from the University clinics Mannheim, Germany, after informed consent.
PBMCs and isolated CD8+ lymphocytes were incubated in T-cell medium (TCM) until use consisting of RPMI-Glutamax (Invitrogen, Karisruhe, Germany) supplemented with 10% heat inactivated human AB serum (PAN-Biotech, Aidenbach, Germany), 100 U/ml Penicillin/100 μg/ml Streptomycin (Cambrex, Cologne, Germany), 1 mM sodium pyruvate (CC Pro, Oberdorla, Germany), 20 μg/ml Gentamycin (Cambrex). 2.5 ng/ml IL-7 (PromoCell, Heidelberg, Germany) and 10 U/ml IL-2 (Novartis Pharma, Nürnberg, Germany) were also added to the TCM at this step.
Generation of pMHC/anti-CD28 coated beads, T-cell stimulations and readout was performed in a highly defined in vitro system using four different pMHC molecules per stimulation condition and 8 different pMHC molecules per readout condition.
The purified co-stimulatory mouse IgG2a anti human CD28 Ab 9.3 (Jung et al., 1987) was chemically biotinylated using Sulfo-N-hydroxysuccinimidobiotin as recommended by the manufacturer (Perbio, Bonn, Germany). Beads used were 5.6 μm diameter streptavidin coated polystyrene particles (Bangs Laboratories, Illinois, USA).
pMHC used for positive and negative control stimulations were A*0201/MLA-001 (peptide […] (SEQ ID NO. 303) from modified Melan-A/MART-1) and A*0201/DDX5-001 ([…] from DDX5, SEQ ID NO. 304), respectively.
800.000 beads/200 μl were coated in 96-well plates in the presence of 4×12.5 ng different biotin-pMHC, washed and 600 ng biotin anti-CD28 were added subsequently in a volume of 200 μl. Stimulations were initiated in 96-well plates by co-incubating 1×10^6 CD8+ T cells with […] washed coated beads in 200 μl TCM supplemented with 5 ng/ml IL-12 (PromoCell) for 3 days at 37° C. Half of the medium was then exchanged by fresh TCM supplemented with 80 U/ml IL-2 and incubating was continued for 4 days at 37° C. This stimulation cycle was performed for a total of three times. For the pMHC multimer readout using 8 different pMHC molecules per condition, a two-dimensional combinatorial coding approach was used as previously described (Andersen et al., 2012) with minor modifications encompassing coupling to 5 different fluorochromes. […]

[2] = target: HLA-A*02 (Homo sapiens, UniProt P04439, D140Y/D185E/D98H/E176V/E277Q/G131W/G231S/I119V/I121R/I166T/I218V/L300P/N151K/N90K/P208A/P217A/Q86G/Q94H/R138H/R169H); test: MHC binding assay: UV-ligand exchange and beta2m ELISA, peptide exchange yield (Table 20); conditions: binding to HLA-A*02; UV-ligand exchange, beta2m ELISA
Excerpt: Candidate peptides for T cell based therapies according to the present invention were further tested for their MHC binding capacity (affinity). The individual peptide-MHC complexes were produced by UV-ligand exchange, where a UV-sensitive peptide is cleaved upon UV-irradiation, and exchanged with the peptide of interest as analyzed. Only peptide candidates that can effectively bind and stabilize the peptide-receptive MHC molecules prevent dissociation of the MHC complexes. To determine the yield of the exchange reaction, an ELISA was performed based on the detection of the light chain (β2m) of stabilized MHC complexes. The assay was performed as generally described in Rodenko et al. (Rodenko et al., 2006).
96 well MAXISorp plates (NUNC) were coated over night with 2 ug/ml streptavidin in PBS at room temperature, washed 4× and blocked for1h at 37° C. in 2% BSA containing blocking buffer. Refolded HLA-A*02:01/MLA-001 monomers served as standards, covering the range of 15-500 ng/ml. Peptide-MHC monomers of the UV-exchange reaction were diluted 100 fold in blocking buffer. Samples were incubated for 1h at 37° C., washed four times, incubated with 2 ug/ml HRP conjugated anti-β2m for 1h at 37′C, washed again and detected with TMB solution that is stopped with […]. Absorption was measured at 450 nm. Candidate peptides that show a high exchange yield (preferably higher than 50%, most preferred higher than 75%) are generally preferred for a generation and production of antibodies or fragments thereof, and/or T cell receptors or fragments thereof, as they show sufficient avidity to the MHC molecules and prevent dissociation of the MHC complexes.
Table 20: MHC class I binding scores. Binding of HLA-class I restricted peptides to HLA-A*02 was ranged by peptide exchange yield: <20%=+; 20%-49%=++; 50%-75%=+++; >=75%=++++

Peptide exchange (MHC class I binding score, peptide exchange yield) [2]: ++++ (>=75% = ++++)
Substance: 12 (GLLPLLHRA; listed as Homo sapiens) [compound 12]
Wells positive [%] (in vitro immunogenicity) [1]: ++++ (>=70%=++++)

Peptide exchange (MHC class I binding score, peptide exchange yield) [2]: ++++ (>=75% = ++++)
Substance: 14 (ILAKDLFEI; listed as Homo sapiens) [compound 14]
Wells positive [%] (in vitro immunogenicity) [1]: ++ (20%-49%=++)

Peptide exchange (MHC class I binding score, peptide exchange yield) [2]: ++++ (>=75% = ++++)
Substance: 248 (YLDRFLAGV; listed as Homo sapiens) [compound 248]
Wells positive [%] (in vitro immunogenicity) [1]: ++ (20%-49%=++)

The remaining lines, values behind:

Substance: 1 (LLYPEPWSV; listed as Homo sapiens) [compound 1]
Wells positive [%] (in vitro immunogenicity) [1]: ++ (20%-49%=++) | Peptide exchange (MHC class I binding score, peptide exchange yield) [2]: ++++ (>=75% = ++++)

Substance: 92 (GLLFSLRSV; listed as Homo sapiens) [compound 92]
Wells positive [%] (in vitro immunogenicity) [1]: ++ (20%-49%=++) | Peptide exchange (MHC class I binding score, peptide exchange yield) [2]: ++++ (>=75% = ++++)

Substance: 249 (GLCERLVSL; listed as Homo sapiens) [compound 249]
Wells positive [%] (in vitro immunogenicity) [1]: + (<20%=+) | Peptide exchange (MHC class I binding score, peptide exchange yield) [2]: ++++ (>=75% = ++++)

Substance: 229 (AILAHLNTV; listed as Homo sapiens) [compound 229]
Wells positive [%] (in vitro immunogenicity) [1]: ++ (20%-49%=++) | Peptide exchange (MHC class I binding score, peptide exchange yield) [2]: ++++ (>=75% = ++++)

Substance: 4 (KLMPGTYTL; listed as Homo sapiens) [compound 4]
Wells positive [%] (in vitro immunogenicity) [1]: + (<20%=+) | Peptide exchange (MHC class I binding score, peptide exchange yield) [2]: ++++ (>=75% = ++++)
